Source: US11780830B2, “Triazolone derivatives or salts thereof and pharmaceutical compositions comprising the same” (YUHAN CORPORATION, priority 2018, dated 2023)
Structures can show the parent of a compound that is named as a salt.

Columns and labels:
Format in all cases: biochemical
recombinant human VAP-1 = biological target: T1, recombinant human VAP-1 (Homo sapiens, UniProt Q16853); experiment: Activity on recombinant human VAP-1, HRP-coupled Amplex Red hydrogen peroxide assay; details: substrate 1 mM benzylamine; compound incubated with enzyme at 37° C. for 30 minutes; pH 7.4; read-out: Inhibitory Activity (IC50, nM) human VAP-1
T1 construct: purchased R&D systems
T1 sequence (Q16853 1-763): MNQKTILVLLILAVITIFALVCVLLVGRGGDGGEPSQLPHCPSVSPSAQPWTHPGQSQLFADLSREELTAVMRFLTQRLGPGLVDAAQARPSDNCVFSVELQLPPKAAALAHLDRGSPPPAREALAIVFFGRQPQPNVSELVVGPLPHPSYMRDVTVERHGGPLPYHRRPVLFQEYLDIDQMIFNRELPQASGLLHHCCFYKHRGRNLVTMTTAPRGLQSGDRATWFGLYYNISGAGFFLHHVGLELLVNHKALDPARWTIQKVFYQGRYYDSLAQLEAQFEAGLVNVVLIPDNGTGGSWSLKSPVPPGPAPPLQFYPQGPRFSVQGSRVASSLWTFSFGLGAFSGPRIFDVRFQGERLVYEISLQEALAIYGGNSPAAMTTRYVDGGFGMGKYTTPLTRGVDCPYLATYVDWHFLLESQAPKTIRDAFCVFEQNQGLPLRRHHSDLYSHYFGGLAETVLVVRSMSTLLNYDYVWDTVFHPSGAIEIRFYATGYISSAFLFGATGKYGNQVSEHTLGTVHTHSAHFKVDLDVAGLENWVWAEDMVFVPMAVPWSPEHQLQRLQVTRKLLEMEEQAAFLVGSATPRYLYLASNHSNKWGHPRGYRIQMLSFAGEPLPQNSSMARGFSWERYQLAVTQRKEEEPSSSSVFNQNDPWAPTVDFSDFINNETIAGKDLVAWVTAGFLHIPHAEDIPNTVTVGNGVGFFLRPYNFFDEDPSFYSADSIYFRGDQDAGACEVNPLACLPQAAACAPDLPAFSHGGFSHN
How it was run: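 8-point 1:3 dilutions, final DMSO <1%; 30 min enzyme preincubation, 37 °C, pH 7.4 phosphate. Start: 1 mM benzylamine + 200 uM Amplex Red + 1 U/mL HRP. Read ex544/em590 over 1-2 h; % rate decrease vs DMSO control, 4-parameter logistic IC50.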

[1] = biological target: T2, recombinant human DAO (diamine oxidase) (Homo sapiens, UniProt P19801); experiment: Activity on recombinant human DAO, method similar to the VAP-1 assay; details: substrate 1 mM putrescine; read-out: Inhibitory Activity (IC50, nM) DAO
T2 construct: purchased R&D systems
T2 sequence (P19801 20-751): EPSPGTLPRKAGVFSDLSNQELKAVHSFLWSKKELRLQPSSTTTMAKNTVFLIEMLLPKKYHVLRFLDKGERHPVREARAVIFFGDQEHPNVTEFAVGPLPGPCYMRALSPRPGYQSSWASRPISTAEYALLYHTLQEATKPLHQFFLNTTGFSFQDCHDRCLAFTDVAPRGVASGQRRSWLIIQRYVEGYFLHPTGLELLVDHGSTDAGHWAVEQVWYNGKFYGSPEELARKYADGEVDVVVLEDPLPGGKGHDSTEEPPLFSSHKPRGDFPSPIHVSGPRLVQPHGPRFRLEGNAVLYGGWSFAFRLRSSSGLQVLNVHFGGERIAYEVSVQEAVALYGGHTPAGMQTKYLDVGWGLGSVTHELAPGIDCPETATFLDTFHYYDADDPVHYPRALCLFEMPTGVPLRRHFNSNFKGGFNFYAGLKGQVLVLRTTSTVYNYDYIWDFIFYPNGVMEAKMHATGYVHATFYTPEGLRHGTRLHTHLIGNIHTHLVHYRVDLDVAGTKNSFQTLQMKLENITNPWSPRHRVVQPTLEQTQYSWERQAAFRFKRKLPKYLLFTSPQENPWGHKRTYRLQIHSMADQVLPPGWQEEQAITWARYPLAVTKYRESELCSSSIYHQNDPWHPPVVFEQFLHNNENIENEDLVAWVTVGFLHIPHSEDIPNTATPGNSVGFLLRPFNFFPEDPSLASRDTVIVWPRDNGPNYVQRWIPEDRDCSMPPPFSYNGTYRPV
How it was run: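 Inhibition of recombinant human diamine oxidase (DAO, R&D systems) was assessed by the same approach as the VAP-1 assay, using 1 mM putrescine as substrate. Hydrogen peroxide formed was detected through an HRP-coupled Amplex Red reaction yielding fluorescent resorufin, read at 544 nm excitation and 590 nm emission. IC50 values came from four-parameter logistic fitting in GraphPad Prism.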

[2] = biological target: T3, recombinant human MAO-B (monoamine oxidase-B) (Homo sapiens, UniProt P27338); experiment: Activity on recombinant human MAO-B, method similar to the VAP-1 assay; details: substrate 1 mM benzylamine; read-out: Inhibitory Activity (IC50, nM) MAO-B
T3 construct: purchased Sigma-Aldrich
T3 sequence (P27338 1-520): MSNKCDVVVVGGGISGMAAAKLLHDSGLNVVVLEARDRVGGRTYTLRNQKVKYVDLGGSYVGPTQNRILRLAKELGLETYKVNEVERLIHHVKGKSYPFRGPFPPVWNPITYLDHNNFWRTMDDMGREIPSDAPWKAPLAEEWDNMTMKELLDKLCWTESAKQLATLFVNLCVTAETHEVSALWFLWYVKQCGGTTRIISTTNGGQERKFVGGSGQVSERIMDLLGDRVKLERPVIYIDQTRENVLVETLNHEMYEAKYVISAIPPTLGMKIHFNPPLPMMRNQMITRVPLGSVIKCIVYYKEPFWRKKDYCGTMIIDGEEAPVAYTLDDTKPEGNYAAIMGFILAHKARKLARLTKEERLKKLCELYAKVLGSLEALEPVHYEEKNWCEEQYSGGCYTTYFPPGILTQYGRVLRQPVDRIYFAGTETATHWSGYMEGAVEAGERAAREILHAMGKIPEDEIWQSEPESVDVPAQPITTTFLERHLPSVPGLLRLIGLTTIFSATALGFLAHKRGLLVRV
How it was run: (§1)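 HRP-coupled Amplex Red H2O2 assay, 50 mM sodium phosphate pH 7.4; compounds (8-point 1:3 series, final DMSO <1%) preincubated with enzyme 30 min at 37° C, then 200 uM Amplex Red, 1 U/mL HRP and substrate (MAO-A 0.5 mM tyramine; MAO-B 1 mM benzylamine) added. Resorufin fluorescence (ex 544/em 590 nm) read over 1-2 h; IC50 from four-parameter logistic fit.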

[3] = biological target: T4, recombinant human MAO-A (monoamine oxidase-A) (Homo sapiens, UniProt P21397); experiment: Activity on recombinant human MAO-A, method similar to the VAP-1 assay; details: substrate 0.5 mM tyramine; read-out: Inhibitory Activity (IC50, nM) MAO-A
T4 construct: purchased Sigma-Aldrich
T4 sequence (P21397 1-527): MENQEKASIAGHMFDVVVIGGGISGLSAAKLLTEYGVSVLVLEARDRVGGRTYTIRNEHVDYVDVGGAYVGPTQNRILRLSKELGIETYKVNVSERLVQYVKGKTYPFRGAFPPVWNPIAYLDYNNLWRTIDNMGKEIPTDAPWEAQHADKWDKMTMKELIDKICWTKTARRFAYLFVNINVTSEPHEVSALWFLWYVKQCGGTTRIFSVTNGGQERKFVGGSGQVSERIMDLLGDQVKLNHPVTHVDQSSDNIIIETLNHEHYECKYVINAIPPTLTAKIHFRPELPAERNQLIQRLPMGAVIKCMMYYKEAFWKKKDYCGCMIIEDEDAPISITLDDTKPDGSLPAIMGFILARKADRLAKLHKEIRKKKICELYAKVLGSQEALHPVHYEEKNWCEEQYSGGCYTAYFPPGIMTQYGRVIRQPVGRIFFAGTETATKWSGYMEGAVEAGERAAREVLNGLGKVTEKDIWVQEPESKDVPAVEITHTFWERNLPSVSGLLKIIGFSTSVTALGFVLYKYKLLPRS
How it was run: as §1

SMILES | IC50 (recombinant human VAP-1) [nM] | IC50 [1] [nM] | IC50 [2] [nM] | IC50 [3] [nM]
NC/C(=C\F)Cn1ncn(Cc2ccc(C#Cc3ccc4c(c3)CCC(=O)N4)s2)c1=O [Example 133, 6-[2-[5-[[1-[(E)-2-(aminomethyl)-3-fluoro-allyl]-5-oxo-1,2,4-triazol-4-yl]methyl]-2-thienyl]ethynyl]-3,4-dihydro-1H-quinolin-2-one hydrochloride] | 0.2 | 530 | 180 | 49000
NC/C(=C\F)Cn1ncn(Cc2ccc(C#Cc3ccc4c(c3)NCCO4)s2)c1=O [Example 134, 2-[(E)-2-(aminomethyl)-3-fluoro-allyl]-4-[[5-[2-(3,4-dihydro-2H-1,4-benzoxazin-6-yl)ethynyl]-2-thienyl]methyl]-1,2,4-triazol-3-one] | 2 | 2100 | 300 | 7100
NC/C(=C\F)Cn1ncn(Cc2ccc(C#Cc3cnc4c(c3)NCCO4)s2)c1=O [Example 135, 2-[(E)-2-(aminomethyl)-3-fluoro-allyl]-4-[[5-[2-(2,3-dihydro-1H-pyrido[2,3-b][1,4]oxazin-7-yl)ethynyl]-2-thienyl]methyl]-1,2,4-triazol-3-one] | 1.1 | 1100 | 750 | > 100000
NC/C(=C\F)Cn1ncn(Cc2ccc(C#Cc3ccc4c(n3)OCCN4)s2)c1=O [Example 136, 2-[(E)-2-(aminomethyl)-3-fluoro-allyl]-4-[[5-[2-(2,3-dihydro-1H-pyrido[2,3-b][1,4]oxazin-6-yl)ethynyl]-2-thienyl]methyl]-1,2,4-triazol-3-one hydrochloride] | 1.5 | 790 | 640 | 20000
NC/C(=C\F)Cn1ncn(Cc2ccc(C#Cc3cnc4c(c3)OCCN4)s2)c1=O [Example 137, 2-[(E)-2-(aminomethyl)-3-fluoro-allyl]-4-[[5-[2-(3,4-dihydro-2H-pyrido[3,2-b][1,4]oxazin-7-yl)ethynyl]-2-thienyl]methyl]-1,2,4-triazol-3-one] | 1.4 | 1400 | 390 | > 100000
NC/C(=C\F)Cn1ncn(Cc2ccc(C#Cc3cnc4c(c3)NC(=O)CO4)s2)c1=O [Example 138, 7-[2-[5-[[1-[(E)-2-(aminomethyl)-3-fluoro-allyl]-5-oxo-1,2,4-triazol-4-yl]methyl]-2-thienyl]ethynyl]-1H-pyrido[2,3-b][1,4]oxazin-2-one hydrochloride] | 0.2 | 470 | 2300 | > 100000
NC/C(=C\F)Cn1ncn(Cc2ccc(C#Cc3cnc4c(c3)OCC(=O)N4)s2)c1=O [Example 139, 7-[2-[5-[[1-[(E)-2-(aminomethyl)-3-fluoro-allyl]-5-oxo-1,2,4-triazol-4-yl]methyl]-2-thienyl]ethynyl]-4H-pyrido[3,2-b][1,4]oxazin-3-one hydrochloride] | 0.5 | 290 | 73 | > 100000

Now from value to compound:

IC50 (recombinant human VAP-1) [nM] | IC50 [1] [nM] | IC50 [2] [nM] | IC50 [3] [nM] | SMILES
9.2 | 4200 | > 10000 | > 100000 | NC/C(=C\F)Cn1ncn(CCc2cccs2)c1=O [Example 141, 2-[(2E)-2-(aminomethyl)-3-fluoroprop-2-en-1-yl]-4-[2-(thiophen-2-yl)ethyl]-2,4-dihydro-3H-1,2,4-triazol-3-one]
2.9 | 11000 | 1000 | > 100000 | Cn1cc(-c2ccc(Cn3cnn(C/C(=C/F)CN)c3=O)s2)cn1 [Example 142, 2-[(2E)-2-(aminomethyl)-3-fluoroprop-2-en-1-yl]-4-{[5-(1-methyl-1H-pyrazol-4-yl)thiophen-2-yl]methyl}-2,4-dihydro-3H-1,2,4-triazol-3-one]
1.4 | 1700 | 2600 | > 100000 | CC(C)n1cc(-c2ccc(Cn3cnn(C/C(=C/F)CN)c3=O)s2)ccc1=O [Example 143, 5-[5-({1-[(2E)-2-(aminomethyl)-3-fluoroprop-2-en-1-yl]-5-oxo-1,5-dihydro-4H-1,2,4-triazol-4-yl}methyl)thiophen-2-yl]-1-(propan-2-yl)pyridin-2(1H)-one]
4.6 | 7400 | 13000 | > 100000 | NC/C(=C\F)Cn1ncn(Cc2ccc(-c3ccc(-c4noc(=O)[nH]4)cc3)s2)c1=O [Example 144, 3-{4-[5-({1-[(2E)-2-(aminomethyl)-3-fluoroprop-2-en-1-yl]-5-oxo-1,5-dihydro-4H-1,2,4-triazol-4-yl}methyl)thiophen-2-yl]phenyl}-1,2,4-oxadiazol-5(4H)-one]
4.4 | 490 | > 100000 | > 100000 | NC/C(=C\F)Cn1ncn(Cc2ccc(-c3ccc(CN4CCOCC4)nc3)s2)c1=O [Example 145, 2-[(2E)-2-(aminomethyl)-3-fluoroprop-2-en-1-yl]-4-({5-[6-(morpholin-4-ylmethyl)pyridin-3-yl]thiophen-2-yl}methyl)-2,4-dihydro-3H-1,2,4-triazol-3-one]
